Experimental data: patent US5641793A, “Pyridine compounds which have useful pharmaceutical activity” (Zeneca Limited, priority 1994, dated 1997)

How the values were obtained:
[1] = tested on: Human ETA or ETB receptors; assay: Test A: inhibition of [125I]-Endothelin-1 binding to MEL cell membranes expressing recombinant receptor; conditions: inhibition of 30 pM [125I]-Endothelin-1 binding; receptor sub-type (ETA or ETB) not given
Text: The endothelin receptor antagonist activity of compounds of formula I may be assessed in vitro by their ability to inhibit binding of [^125 I]-Endothelin-1 to its receptors. Human ETA or ETB receptors (sub-types of the endothelin receptor) were expressed in Mouse Erythroleukemic Cells (MEL cells) by using standard molecular techniques (for example, as described by Sambrook J., Fritsch E. F. & Maniatis T. (1989) Molecular Cloning: A Laboratory Manual, 2nd Edition, Cold Spring Harbor Press, U.S.A.). cDNA sequences encoding the human ETA and ETB receptor (Hosoda K. et al (1991), FEBS Lett., 287, 23-26 and Sakamoto A. et al, (1991), Biochem. Biophys Res. Comm., 178, 656-663) are subcloned into pBluescript vector followed by insertion into the MEL cell expression vector pEV as described by Needham et al (1992), Nuc. Acids Res., 20, 997-1003. […]
[^125 I]-Endothelin-1 binding to MEL cell membranes was measured in incubation buffer containing 50 mM Tris HCl, 1 mM CaCl2, 0.05% polyoxyethylenesorbitan monolaurate, 0.1% Bovine Serum Albumin (BSA), 0.02% sodium azide pH 7.4 at 30° C. after 180 minutes incubation. […] Nonspecific binding was measured in the presence of 100 nM unlabelled Endothelin-1. […] The filter discs were punched out and counted in a gamma counter. Compounds are tested in triplicate over a range of concentrations and IC50 (or pIC50) values calculated.

endothelin receptor = assay: Test B: inhibition of the relaxant response to endothelin-1 in guinea-pig isolated taenia coli; conditions: antagonism of endothelin-1 relaxation, initial test concentration 20 μM
Experimental: The endothelin receptor antagonist activity of compounds of formula I may be assessed in vitro in isolated tissues by their ability to inhibit the relaxant response to endothelin-1 in the guinea-pig isolated taenia coli. Guinea pigs of either sex and weight >250 g are killed by cervical dislocation and the caecum removed and placed in cold oxygenated Krebs solution. Strips of taenia coli are dissected out and approximately 4 cm lengths set up for isotonic recording in a 20 ml organ bath containing oxygenated Krebs solution at 32° C. After a […] equilibration period to allow the tissue to spontaneously develop an increased tone, a cumulative concentration-response curve (relaxation) is constructed to endothelin-1 (0.3-10 nM). The tissue is then washed for a period of at least 90 minutes before construction of a second concentration-response curve to endothelin-1 in the presence of the test compound. The test compound is added to the organ bath (at an initial concentration of 20 μM) at least 30 minutes before constructing the second concentration-response curve to endothelin-1. The endothelin-1 concentration ratio for each experiment is determined by comparing the most parallel portions of the control and drug treated concentration-response curves. From this a pA2 is calculated: pA2 =-log[molar drug concentration]+log[concentration ratio-1].

**Q.** For `Cc1cc(Br)cnc1NS(=O)(=O)c1cccc2c(N(C)C)cccc12` [Example 6, 5-(dimethylamino)-N-(5-bromo-3-methyl-2-pyridyl)-1-naphthalenesulphonamide], which “pIC50 in test A” value [1] is on record?
**A.** 6.5

**Q.** And the “pA2 in test B” value (endothelin receptor)?
**A.** 6.6
